Consider 19 compounds from patent publication US4826975A, “Fused cycloaliphatic aminoalcohols” (Maggioni-Winthrop S.P.A., priority 1986, dated 1989).

One data set has as its system toxic adrenaline doses. Nature of the data set: animal or person. As to conditions: Mus musculus, po; 2 hrs before 14.5 mg/kg 1-adrenaline i.p., mortality after 24 hrs; read-out: DP50 (50% protective dose). It counts as in vivo, mice.
The subject of the next data set is gasping time in mice. The data set can be described thus: anti-hypoxic activity, gasping time after decapitation. Format: in vivo. The method, then:
The anti-hypoxic activity was determined according to Yasuda et al., Arch. Int. Pharmacodyn. 233, 136, 1978.
Groups of 10 male mice (21-23 g) were treated orally with vehicle (controls) and the invention compounds. After 45 or 90 minutes the animals were decapitated and the gasping time was determined. Table 6 gives the results obtained after administration of some of the invention compounds which display an activity higher than Suloctidil.

The nature of data set [1]: oral acute toxicity in male mice. To be noted: mouse, in vivo. The method, then:
The oral acute toxicity in male mice of the invention compound is very low. […]; and higher than 2,000 mg/kg for MG 38005, MG 28401, MG 28414 and MG 28427.

The subject of the next data set is platelet aggregation. The data set can be described thus: effect on collagen-stimulated platelet aggregation, ex vivo. Format: in vivo. As to conditions: Rattus norvegicus, 0.15 mM/kg oral, 1 hr, collagen 2-4 mcg/ml, read-out: % inhibition, Aggregation rate. The protocol: The effect on platelet aggregation was tested ex vivo according to the method of Minsker, (J. Pharmacol. Exp. Ther. 210, 37, 1979) slightly modified. Groups of 3 rats (280-350 g) were treated orally with vehicle (controls) and compounds (0.15 mM/kg). Blood was collected and pooled from rats of each group 1 hr after treatment and the platelet rich plasma (PRP) was separated by centrifugation.
Platelet aggregation was stimulated with collagen (2-4-mcg/ml) added simultaneously to PRP of control and treated rats. The results were assessed photometrically. Each test was replicated 4 times in groups of 3 animals. Aggregation curves were evaluated in terms of two parameters namely maximum optical density variation (maximum aggregation) and aggregation rate.

The next data set has as its system Normolipemic rats. Nature of the data set: hypolipemic activity in normolipemic rats (serum lipids, liver weight). It counts as in vivo, rat. The protocol: Total cholesterol (CHOL), triglycerides (TG), HDL cholesterol CHOL-HDL) were assayed in serum and the liver was weighed.
The next data set relates to DOCA rats. Format: in vivo, rat. As to conditions: 15 mg/kg po. The method, then:
Changes in blood pressure (mm Hg) before (T=O) and after treatment (2, 4 and 6 hrs) were measured according to the method of tail artery plethysmography reported in "Spontaneously hypertensive rats (SHR), guidelines for breeding, care and use", SHR Conference, 1976, page 11.
The heart rate was also […] (BP Recorder No. 8006 supplied by Basile, Comerio, Italy). The arterial pressure before the treatment was 210±10 mmHg in SHR and 200±10 in DOCA rats.

Another data set has as its system SHR. Nature of the data set: anti-hypertensive activity in spontaneously hypertensive (SH) rats, tail artery plethysmography. To be noted: 15 mg/kg po.
Setting [2] is: 100 mg/kg p.o., pretreatment 90 min.
[3] abbreviates: 100 mg/kg p.o., pretreatment 45 min.

Take `COc1cc2c(c(OC)c1OC)CC[C@H](N1CCC(n3c(=O)[nH]c4cc(Cl)ccc43)CC1)[C@H]2O` (relative stereo) [MG 16456, trans-2-[4(2-Oxo-5-chloro-1-benzimidazolinyl)-1-piperidinyl]-5,6,7-trimethoxy-1-tetralol]: the ED50 in the data set with toxic adrenaline doses came to 1.85 mg/kg. Further, in the data set on gasping time in mice (setting [2]), the “Gasping time, % diff. from control” value is on record as “+36.3%”.

`CCCCCCCCN[C@H]1Cc2cc(OC)c(OC)cc2[C@@H]1O` (relative stereo) [MG 28400, trans 5,6-Dimethoxy-2-(n-octylamino)-1-indanol]: in data set [1], the LD50 was above 500 mg/kg. Also, the “Gasping time, % diff. from control” value in the data set on gasping time in mice (setting [3]) is reported as “+53.8%”.

`COc1cc2c(cc1OC)[C@@H](O)[C@H](N1CCN(C(=O)C=Cc3ccccc3)CC1)C2` (relative stereo) [MG 28414, trans 2-[4-(1-Oxo-3-phenyl-2-propenyl)-1-piperazinyl]-5,6-dimethoxy-1-indanol]: the LD50 in data set [1] is above 2000 mg/kg. In addition, the inhibition at 0.15 mmol/kg in the data set with platelet aggregation came out at 58%.

For `CCCCCCCCN[C@@H]1Cc2c(cc(OC)c(OC)c2OC)[C@H]1O` (relative stereo) [MG 38006, trans 2-(n-Octylamino)-4,5,6-trimethoxy-1-indanol], the LD50 in data set [1] was above 1000 mg/kg. Also, in the data set on gasping time in mice (setting [3]), the “Gasping time, % diff. from control” value is “+33.2%”.

In the case of `COc1cc2c(c(OC)c1OC)CC[C@H](N1CCC(n3c(=O)[nH]c4ccccc43)CC1)[C@H]2O` (relative stereo) [MG 38028, trans 2-[4-(2-Oxo-1-benzimidazolidinilyl)-1-piperidinyl]-5,6,7-trimethoxy-1-tetralol], the ED50 in the data set with toxic adrenaline doses is 0.73 mg/kg.

With `COc1cc2c(cc1OC)[C@@H](O)[C@@H](N1CCN(c3ccccc3OC)CC1)C2` (relative stereo) [MG 38100, cis-2-[4-(2-Methoxyphenyl)-1-piperazinyl]-5,6-dimethoxy-1-indanol], in data set [1], the LD50 is above 500 mg/kg. Also, the ED50 with toxic adrenaline doses stood at 8.5 mg/kg. The “Gasping time, % diff. from control” value in the data set on gasping time in mice (setting [3]) is listed as “+95.7%”.

`COc1cc2c(c(OC)c1OC)C[C@H](N1CCC(NC(=O)c3ccccc3)CC1)[C@@H]2O` (relative stereo) [MG 38107, cis-2-(4-Benzamido-1-piperidinyl)-4,5,6-trimethoxy-1-indanol] showed an LD50 in data set [1] above 1000 mg/kg. In addition, in the data set with toxic adrenaline doses, the ED50 was 2.45 mg/kg. Moreover, in the data set with Normolipemic rats (0.185 mM/kg po × 4 days), the “CHOL, % difference from control” value is -35.7%; the “CHOL-HDL, % difference from control” value is -8.5%; the “Liver weight, % difference from control” value is “+5.6%”; the “TG, % difference from control” value is -50.9%. In the data set with Normolipemic rats (0.370 mM/kg po × 4 days), the “CHOL, % difference from control” value was -30.7%; the “CHOL-HDL, % difference from control” value is given as -26.3%; the “Liver weight, % difference from control” value was found to be 0%; the “TG, % difference from control” value is -58.5%. In the data set with Normolipemic rats (oral), the “hypolipemic effect / activity (in words)” value is listed as “higher than with Clofibrate”. For the same compound, the “effect on CHOL and TG (in words)” value with Normolipemic rats (oral, 4 days) is “marked decrease both of CHOL and TG”.

Turning to `COc1cc2c(cc1OC)[C@@H](O)[C@@H](N1CCC(NC(=O)c3ccccc3)CC1)C2` (relative stereo) [MG 38112, cis 2-(4-Benzamido-1-piperidinyl)-5,6-dimethoxy-1-indanol], the “Max. changes in systolic pressure” value in the data set on DOCA rats was -19 mmHg. Further, in data set [1], the LD50 was above 1000 mg/kg. Further, in the data set on SHR, the “Max. changes in systolic pressure” value was -35 mmHg. For the same compound, the ED50 with toxic adrenaline doses worked out at 4.4 mg/kg. In the data set on Normolipemic rats (0.185 mM/kg po × 4 days), the “CHOL, % difference from control” value is recorded as -45.2%; the “CHOL-HDL, % difference from control” value was -18.6%; the “Liver weight, % difference from control” value was found to be 0%; the “TG, % difference from control” value is listed as -41.8%. Moreover, in the data set with Normolipemic rats (0.370 mM/kg po × 4 days), the “CHOL, % difference from control” value is -52.7%; the “CHOL-HDL, % difference from control” value is on record as -21.4%; the “Liver weight, % difference from control” value is recorded as “+3.9%”; the “TG, % difference from control” value is -58.9%. Besides, in the data set on Normolipemic rats (oral), the “hypolipemic effect / activity (in words)” value is given as “higher than with Clofibrate”. Also, the “effect on CHOL and TG (in words)” value in the data set with Normolipemic rats (oral, 4 days) was “marked decrease both of CHOL and TG”.

Regarding `COc1cc2c(c(OC)c1OC)C[C@@H](N1CCC(n3c(=O)[nH]c4cc(Cl)ccc43)CC1)[C@H]2O` (relative stereo) [MG 38119, cis-2-[4-(2-Oxo-5-chloro-1-benzimidazolinyl)-1-piperidinyl]-4,5,6-trimethoxy-1-indanol], the ED50 with toxic adrenaline doses turned out to be 4.4 mg/kg.

For `COc1cc2c(cc1OC)[C@H](O)[C@H](N1CCC(n3c(=O)[nH]c4cc(Cl)ccc43)CC1)C2` (relative stereo) [MG 38121, cis 2-[4-(2-Oxo-5-chloro-1-benzimidazolinyl)-1-piperidinyl]-5,6-dimethoxy-1-indanol], the ED50 in the data set with toxic adrenaline doses amounted to 2.75 mg/kg.

Take `COc1cc2c(c(OC)c1OC)C[C@H](N1CCC(n3c(=O)[nH]c4cc(Cl)ccc43)CC1)[C@H]2O` (relative stereo) [MG 38122, trans-2-[4-(2-Oxo-5-chloro-1-benzimidazolinyl)-1-piperidinyl]-4,5,6-trimethoxy-1-indanol]: the “Max. changes in systolic pressure” value is -28 mmHg in the data set on DOCA rats and -41.9 mmHg in the data set on SHR.

Consider `COc1cc2c(cc1OC)[C@H](O)[C@@H](N1CCC(n3c(=O)[nH]c4cc(Cl)ccc43)CC1)C2` (relative stereo) [MG 38131, trans-2-[4-(2-Oxo-5-chloro-1-benzimidazolinyl)-1-piperidinyl]-5,6-dimethoxy-1-indanol], for which, in the data set on Normolipemic rats (0.370 mM/kg po × 4 days), the “CHOL, % difference from control” value is reported as ~ 0%; the “CHOL-HDL, % difference from control” value is listed as “+57.2%”; the “Liver weight, % difference from control” value is “+6.9%”; the “TG, % difference from control” value was -41.4%.

Take `Fc1ccc(C(c2ccc(F)cc2)N2CCN(C/C=C/c3ccccc3)CC2)cc1` [Flunarizine, reference compound]: the “Gasping time, % diff. from control” value with gasping time in mice (50 mg/kg p.o., pretreatment 90 min.) is “+68.7%”.

With `COc1cc2c(c(OC)c1OC)CC(N1CCC(n3c(=O)[nH]c4ccccc43)CC1)C2=O` (stereo not drawn) [MG 38005, 2-[4-(2-oxo-1-benzimidazolinyl)-1-piperidinyl]-4,5,6-trimethoxy-1-indanone], the figures for the “Max. changes in systolic pressure” value in the data set with DOCA rats and with SHR were -27 mmHg and -42 mmHg, respectively. The same compound yielded an LD50 in data set [1] above 2000 mg/kg.

`COc1cc2c(cc1OC)C(=O)C(N1CCC(NC(=O)c3ccccc3)CC1)C2` (stereo not drawn) [MG 38128]: in the data set with Normolipemic rats (0.370 mM/kg po × 4 days), the “CHOL, % difference from control” value is ~ 0%; the “CHOL-HDL, % difference from control” value is given as “+46.8%”; the “Liver weight, % difference from control” value was “+8.6%”; the “TG, % difference from control” value is recorded as -38.8%. The “effect on TG and CHOL-HDL (in words)” value in the data set on Normolipemic rats (oral, 4 days) was “decrease TG and increase CHOL-HDL”.

As for `Cc1ccc(N(CC2=NCCN2)c2cccc(O)c2)cc1` [Phentolamine, reference compound], the ED50 with toxic adrenaline doses was found to be 8 mg/kg.

On to `COc1cc2nc(N3CCN(C(=O)c4ccco4)CC3)nc(N)c2cc1OC` [Prazosin, reference compound], for which the ED50 in the data set on toxic adrenaline doses turned out to be 0.7 mg/kg.

As to `CC(C)(Sc1cc(C(C)(C)C)c(O)c(C(C)(C)C)c1)Sc1cc(C(C)(C)C)c(O)c(C(C)(C)C)c1` [Probucol, reference compound], in the data set on Normolipemic rats (0.205 mM/kg po × 8 days), the “CHOL, % difference from control” value is -25.0%; the “CHOL-HDL, % difference from control” value is -26%; the “Liver weight, % difference from control” value was “+4%”; the “TG, % difference from control” value is on record as -28.0%. In addition, in the data set with Normolipemic rats (0.820 mM/kg po × 4 days), the “CHOL, % difference from control” value is given as ~ 0%; the “CHOL-HDL, % difference from control” value is “+18.5%”; the “Liver weight, % difference from control” value is ~ 0%; the “TG, % difference from control” value was ~ 0%. Further, in the data set with Normolipemic rats (oral), the “hypolipemic effect / activity (in words)” value is “moderate and is noted only after prolonged treatment (8 days)”.

For `CCCCCCCCNC(C)C(O)c1ccc(SC(C)C)cc1` (stereo not drawn) [Suloctidil, reference compound], the “Gasping time, % diff. from control” value in the data set with gasping time in mice (setting [3]) was “+27.5%”; in the data set on gasping time in mice (setting [2]) it was “+11.7%”. For the same compound, the inhibition at 0.15 mmol/kg in the data set on platelet aggregation came to 57.5%.

For orientation: LD50 means the dose expected to kill half of the subjects tested. One may read the inhibition as the percentage by which the read-out fell short of the control.
